These results are taken from US20260049085A1, “CYCLIC COMPOUNDS AND METHODS OF USING SAME” (SCHRÖDINGER, INC., priority 2022, published 2026).

In this test the target is T1, full-length MALT1 protein His-MALT1(1-824) (Homo sapiens, UniProt Q9UDY8).
T1 construct: full-length MALT1 protein His-MALT1(1-824); His (N); made in house; host or cells: baculovirus-infected insect cells
T1 sequence (Q9UDY8 1-824): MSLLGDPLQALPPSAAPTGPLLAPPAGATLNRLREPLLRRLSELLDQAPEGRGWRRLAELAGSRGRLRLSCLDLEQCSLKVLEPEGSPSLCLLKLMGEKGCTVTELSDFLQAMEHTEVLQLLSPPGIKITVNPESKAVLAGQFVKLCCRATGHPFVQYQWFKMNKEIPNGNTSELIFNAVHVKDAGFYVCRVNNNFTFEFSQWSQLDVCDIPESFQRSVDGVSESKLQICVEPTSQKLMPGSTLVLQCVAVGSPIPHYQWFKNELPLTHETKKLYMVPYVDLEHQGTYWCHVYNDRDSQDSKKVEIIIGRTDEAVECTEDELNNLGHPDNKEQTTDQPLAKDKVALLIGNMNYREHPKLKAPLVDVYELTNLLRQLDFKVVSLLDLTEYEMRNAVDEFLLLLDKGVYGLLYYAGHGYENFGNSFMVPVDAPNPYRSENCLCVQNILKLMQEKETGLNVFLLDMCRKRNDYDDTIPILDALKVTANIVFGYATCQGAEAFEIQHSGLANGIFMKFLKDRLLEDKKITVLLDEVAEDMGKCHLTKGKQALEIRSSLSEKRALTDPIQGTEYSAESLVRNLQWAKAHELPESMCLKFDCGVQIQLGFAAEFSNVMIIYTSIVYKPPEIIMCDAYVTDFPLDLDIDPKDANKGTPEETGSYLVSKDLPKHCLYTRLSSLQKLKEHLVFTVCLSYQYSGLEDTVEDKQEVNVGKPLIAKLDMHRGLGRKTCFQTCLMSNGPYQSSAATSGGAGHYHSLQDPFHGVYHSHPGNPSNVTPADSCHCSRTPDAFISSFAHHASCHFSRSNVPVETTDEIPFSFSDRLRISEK
Put plainly: MALT1 protease assay (Ac-LRSR-AMC tetrapeptide substrate, fluorescence). The format is biochemical. The following applies: 1 nM MALT1, 25 μM Ac-LRSR-AMC, 2 h pre-incubation, 8 hr incubation at RT. As for the experimental part: MALT1 protease activity was assessed in an in vitro assay using a tetrapeptide as substrate and full-length MALT1 protein His-MALT1(1-824) purified from baculovirus-infected insect cells.
The final assay buffer includes 1 nM of MALT1 full-length protein, 25 μM Ac-LRSR-AMC substrate, 50 mM Tris pH 7.5, 600 mM Sodium Citrate, 1 mM DTT, 1 mM EDTA, and 0.05% BSA in 384-well plate format using black microtiter square well plates (Optiplate 384-F, Perkin Elmer).
Test compounds were dissolved in 100% DMSO stock of 10 mM, with final DMSO concentration of 0.1%. Test compounds were pre-incubated with MALT1 protein for 2 h at room temperature. Substrate was added after the pre-incubation and fluorescence signal was measured using Envision at excitation 355 nm and emission 460 nm after 8 hr incubation at RT.
The fluorescence units were transformed to percentage of remaining activity by using the high control (HC, median of fluorescence signal from wells containing MALT1 protein, substrate, and DMSO) and low control (LC, median of fluorescence signal from wells with substrate only) with the formula below: […]
IC50 and Hill coefficients were obtained using Graph Pad Prism (Graph Pad software, Inc, USA) with non-linear regression analysis.

Each structure is given as a SMILES string.

For orientation: IC50 means the concentration needed to halve the response being measured. A higher IC50 goes with weaker potency in that assay.

As to `Cn1cc([C@]2(C)C[C@H](C(=O)Nc3cnc(-n4nccn4)c(Cl)c3)c3cnc4cc(F)nn4c32)cn1` (racemic) [Example 3, (cis)-N-(5-chloro-6-(2H-1,2,3-triazol-2-yl)pyridin-3-yl)-2-fluoro-8-methyl-8-(1-methyl-1H-pyrazol-4-yl)-7,8-dihydro-6H-cyclopenta[e]pyrazolo[1,5-a]pyrimidine-6-carboxamide], the concentration for half-maximal inhibition (IC50) is 100 to 1000 nM.

As for `CC(F)(F)n1ccc([C@]2(C)C[C@H](C(=O)Nc3cnc(-c4ncccn4)c(Cl)c3)c3cnc4cc(F)nn4c32)n1` (racemic) [Example 170, (cis)-N-(5-chloro-6-(pyrimidin-2-yl)pyridin-3-yl)-8-(1-(1,1-difluoroethyl)-1H-pyrazol-3-yl)-2-fluoro-8-methyl-7,8-dihydro-6H-cyclopenta[e]pyrazolo[1,5-a]pyrimidine-6-carboxamide], the IC50 lay in the range of 100 to 1000 nM. In the case of `Cc1cc2ncc3c(n2n1)[C@@](C)(c1ccn(C(F)F)n1)C[C@@H]3C(=O)Nc1cnc(-c2ncccn2)c(C(F)(F)F)c1` (racemic) [Example 195, (tras)-8-(1-(difluoromethyl)-1H-pyrazol-3-yl)-2,8-dimethyl-N-(6-(pyrimidin-2-yl)-5-(trifluoromethyl)pyridin-3-yl)-7,8-dihydro-6H-cyclopenta[e]pyrazolo[1,5-a]pyrimidine-6-carboxamide] it was 10 to 100 nM; in that of `Cc1cc2ncc3c(n2n1)[C@](C)(c1ccn(C(F)F)n1)C[C@@H]3C(=O)Nc1cnc(-c2ncccn2)c(C(F)(F)F)c1` (racemic) [Example 196, (cis)-8-(1-(difluoromethyl)-1H-pyrazol-3-yl)-2,8-dimethyl-N-(6-(pyrimidin-2-yl)-5-(trifluoromethyl)pyridin-3-yl)-7,8-dihydro-6H-cyclopenta[e]pyrazolo[1,5-a]pyrimidine-6-carboxamide], 100 to 1000 nM. `Cn1cc([C@]2(C)C[C@@H](C(=O)Nc3cnc(-n4nccn4)c(Cl)c3)c3cnc4cc(F)nn4c32)cn1` (single isomer, unassigned) [Example 2] yielded an IC50 not below 1000 nM. With `Cn1cc([C@]2(C)C[C@@H](C(=O)Nc3cnc(-n4nccn4)c(C(F)(F)F)c3)c3cnc4cc(F)nn4c32)cn1` (single isomer, unassigned) [Example 4], the IC50 is not below 1000 nM. In the case of `Cn1cc([C@@]2(C)C[C@@H](C(=O)Nc3cnc(-n4nccn4)c(C(F)(F)F)c3)c3cnc4cc(F)nn4c32)cn1` (single isomer, unassigned) [Example 6] it was 100 to 1000 nM; in that of `Cn1cc([C@]2(C)C[C@H](C(=O)Nc3cnc(-n4nccn4)c(C(F)(F)F)c3)c3cnc4cc(F)nn4c32)cn1` (single isomer, unassigned) [Example 7], 100 to 1000 nM.

Take `Cn1cc([C@]2(C)C[C@@H](C(=O)Nc3cnc(-n4nccn4)c(Cl)c3)c3cnc4cc(Cl)nn4c32)cn1` (single isomer, unassigned) [Example 9]: the half-maximal inhibitory concentration (IC50) was not below 1000 nM. In turn, `Cn1cc([C@]2(C)C[C@H](C(=O)Nc3cnc(-n4nccn4)c(Cl)c3)c3cnc4cc(Cl)nn4c32)cn1` (single isomer, unassigned) [Example 10] returned a 50% inhibitory concentration (IC50) of 100 to 1000 nM. The figure for `Cn1cc([C@@]2(C)C[C@@H](C(=O)Nc3cnc(-n4nccn4)c(Cl)c3)c3cnc4cc(Cl)nn4c32)cn1` (single isomer, unassigned) [Example 11] is 100 to 1000 nM; for `Cn1cc([C@]2(C)C[C@@H](C(=O)Nc3cnc(-n4nccn4)c(Cl)c3)c3cnc4c(F)c(F)nn4c32)cn1` (single isomer, unassigned) [Example 13] it is not below 1000 nM; for `Cn1cc([C@]2(C)C[C@H](C(=O)Nc3cnc(-n4nccn4)c(Cl)c3)c3cnc4c(F)c(F)nn4c32)cn1` (single isomer, unassigned) [Example 14] it is 100 to 1000 nM. For the compound `Cn1cc([C@@]2(C)C[C@@H](C(=O)Nc3cnc(-n4nccn4)c(Cl)c3)c3cnc4c(F)c(F)nn4c32)cn1` (single isomer, unassigned) [Example 15], the IC50 was in the range of 100 to 1000 nM.
